# Patent US20240024504A1, “SITE-SELECTIVE LYSINE ACETYLATION OF HUMAN IMMUNOGLOBULIN G AND IgG-RELATED PRODUCTS FOR IMMUNOTHERAPY” (The Chinese University of Hong Kong, priority 2022, published 2024)
# Numbered stars: 1 amine (or outer) side, 2 acyl side, 3 side chain; on linkers, the order of the positions; unused ones are H or OH. Bridge positions count the residues as written; N and C are the ends. Square brackets hold non-standard residues; d marks the D form. Peptide text beside a SMILES is read from it. * marks the point of attachment. X1 = O=C(O)c1cc(NC(=S)*)ccc1-c1c2ccc(=O)cc-2oc2cc(O)ccc12; X4 = [N-]=[N+]=NCC(=O)Nc1ccc(N*)cc1; Dap = NC[C@H](N)C(=O)O; X3 = O=C(C[*:2])[*:1]; X2 = Oc1ccc(N*)cc1; βAla = NCCC(=O)O
# Columns and labels:
# [1] = tested on: human IgG Fc; assay: Peptide-driven acetylation (labelling) of human IgG Fc, SDS-PAGE in-gel fluorescence / MALDI-TOF MS; format: biochemical; conditions: for yield of the labeled Fc: MS peak area after Glu-C digestion (F11: in-gel fluorescence, ImageJ)
# Protocol: (§1) FIG. 2A-2C Kinetic details of the acetylation reaction and hydrolysis of F1. (FIG. 2A) Reactions at different peptide-to-IgG Fc ratios. Reactions were performed in PBS buffer (pH 7.4) at 37° C. for 1 h. Protein loading in each lane is 2 μg. (FIG. 2B) Reaction kinetics. Reaction condition: 4 μM IgG Fc, 24 μM F1, PBS buffer (pH 7.4), at 37° C. The reactions were quenched with 1% SDS at different time points. After conducting an SPAAC reaction with DBCO-PEG4-TAMRA, the reactions were denatured and resolved by SDS-PAGE. Product conversion was quantified based on band-shift in the SDS-PAGE image. (FIG. 2C) Hydrolysis of peptide ester (24 μM) monitored by HPLC in pH 7.4 PBS buffer at 37° C.
# FIG. 27A-27B The study of IgG Fc acetylation reaction with different payloads. (FIG. 27A) A set of reactive peptides with different acyl groups tested for labeling efficiency. (FIG. 27B) The yields of IgG Fc labeled by peptides at 37° C. Reaction condition: 4 μM IgG Fc, 24 μM peptide, in PBS buffer (pH 7.4) for 2 h or in borate buffer (pH 8.5) for 15 h, respectively. […] The yields were quantified by MS analysis with in-solution Glu-C digestion of modified Fc or by in-gel fluorescent image (FIGS. 27A-27B, […]).
# (§2) IgG or IgG Fc labelling reactions. Unless otherwise noted, the final concentrations of proteins were 4 μM and peptides were 24 μM. The conjugation reactions were performed in PBS buffer (pH 7.4, 137 mM NaCl, 2.7 mM KCl, 10 mM Na2HPO4, 1.8 mM KH2PO4) at 37° C. for 1 h and stopped by 1% SDS. For copper-free click chemistry, the protein-peptide reaction mixture was first incubated with 100 uM DBCO-TAMRA at room temperature for 2 h and then denatured in the presence of loading dye. After resolved by SDS-PAGE, the gel was first observed in the fluorescence channel, and then stained with Coomassie Brilliant Blue dye.
# Characterization of IgG or IgG Fc modification by MALDI-TOF MS. To characterize Fc region, 5 μg protein sample was used. Firstly, Fc was treated in the presence of TCEP (20 mM) at 60° C. for 10 min. Then, the sample was acidified with TFA at a pH of <4. After prewetting, C4 ZipTip was equilibrated with water (0.1% TFA). Binding of Fc was realized by aspirating and dispensing sample 7 to 10 cycles. The tip was next washed 3 times and eluted by 5 μL 70% acetonitrile/water solution with 0.1% TFA. Now the sample was ready for MALDI-TOF MS analysis. For characterization of modified Fc region, the reaction was first quenched by acidification (For acid labile antibodies, the peptide f-F0 could be used to quench the reaction.). After coupling with DBCO-TAMRA, the sample was reduced. Then, the sample was desalted and concentrated by using the same procedure. […] Next the sample was purified by HPLC with C4 column, and peaks were collected and lyophilized. The sample was dissolved in 50% acetonitrile/water solution with 0.1% TFA and subjected to MALDI-TOF MS analysis.
# [2] = molecular target: T1, atezolizumab (Homo sapiens, UniProt P01857, D239E/L241M/N180A); assay: biochemical
# Source text: Ligand-induced fluorescence change was used to determine the Kd value. (FIG. 13A) Dose response curve. (FIG. 13B) Capillary scans. (FIG. 13C) MST traces.
# Ligand-induced fluorescence change was used to determine the Kd value. (FIG. 14A) Dose response curve. (FIG. 14B) Capillary scans. (FIG. 14C) MST traces.
# Ligand-induced fluorescence change was used to determine the Kd value. (FIG. 15A) Dose response curve. (FIG. 15B) Capillary scans. (FIG. 15C) MST traces.
# Microscale thermophoresis (MST) binding experiments. […] The measurements were performed in phosphate buffered saline supplemented with 0.05% Tween-20 (PBS-T). […] The measurements were performed on a NanoTemper Technologies Monolith NT.115 instrument. The settings of MST power was medium and LED power was Auto-detect.
# [3] = Hydrolysis of peptide ester monitored by HPLC; format: physicochemical
# Protocol: as §1
# [4] = tested on: rabbit IgG; assay: Target selectivity of peptide-driven acetylation towards IgG from different species (rabbit); format: biochemical; conditions: 4 μM protein, 24 μM F1, PBS pH 7.4, 37° C., 1 h
# Protocol: (§3) FIG. 10 Target selectivity of peptide-driven acetylation towards IgG from different species. Reaction condition: 4 μM protein, 24 μM F1, PBS buffer (pH 7.4), at 37° C. for 1 h. The reactions were quenched with 1% SDS and DBCO-TAMRA was added at room temperature for 1.5 h for copper-free click chemistry. […] Each lane contains […] of antibodies.
# as §2
# [5] = tested on: IgG Fc from mice; assay: Target selectivity of peptide-driven acetylation towards IgG from different species (mouse); format: biochemical; conditions: 4 μM protein, 24 μM F1, PBS pH 7.4, 37° C., 1 h
# Protocol: as §3, §2
# [6] = tested on: IgG Fc in a protein mixture of HeLa cell lysate; conditions: Fc-spiked HeLa cell lysate, RIPA lysis buffer pH 7.4, 37° C., 1 h, 6-fold excess of peptide
# Protocol: Fc protein was spiked to a mixture of proteins from HeLa cell lysate, and the F1 peptide was added to the lysate to initiate acetylation reaction. […] Reactions were performed in pH 7.4 RIPA lysis buffer at 37° C. for 1 h with a 6-fold excess of peptides, followed by copper-free click chemistry with DBCO-TAMRA. Then the reactions were analyzed by denaturing SDS-PAGE and imaged using in-gel fluorescence scanning and Coomassie blue staining.
# [7] = molecular target: T1, atezolizumab; assay: Acetylation of atezolizumab by peptide F1, MALDI-TOF MS / SDS-PAGE; format: biochemical; set-up: purchased SelleckChem A2004; conditions: for heavy chain modified: 4 μM Atezo, 24 μM F1, PBS pH 7.4, 37° C., MALDI-TOF MS
# Protocol: (FIG. 4A) Acetylation reaction monitored by SDS-PAGE and fluorescent scanning. Reaction condition: 4 μM Atezo, 24 μM F1, PBS buffer (pH 7.4), at 37° C. for 1 h. The reactions were quenched with 1% SDS and DBCO-TAMRA was added at room temperature for 1.5 h for SPAAC reaction before SDS-PAGE and in-gel fluorescent imaging. […] (FIG. 4C) In-gel digestion for MALDI-TOF MS analysis to identify the acetylation site. Modified Lys 248 was marked in red. L chain: light chain, H chain: heavy chain, M-H chain: modified heavy chain, Atezo: atezolizumab.
# as §2
# Characterization of IgG or IgG Fc modification by MALDI-TOF MS. To characterize Fc region, 5 μg protein sample was used. Firstly, Fc was treated in the presence of TCEP (20 mM) at 60° C. for 10 min. Then, the sample was acidified with TFA at a pH of <4. After prewetting, C4 ZipTip was equilibrated with water (0.1% TFA). Binding of Fc was realized by aspirating and dispensing sample 7 to 10 cycles. The tip was next washed 3 times and eluted by 5 μL 70% acetonitrile/water solution with 0.1% TFA. Now the sample was ready for MALDI-TOF MS analysis. For characterization of modified Fc region, the reaction was first quenched by acidification (For acid labile antibodies, the peptide f-F0 could be used to quench the reaction.). After coupling with DBCO-TAMRA, the sample was reduced. Then, the sample was desalted and concentrated by using the same procedure. […]
# [8] = 4 μM IgG Fc, 24 μM peptide, 37° C., PBS buffer (pH 7.4) for 2 h
# [9] = 4 μM IgG Fc, 24 μM peptide, 37° C., borate buffer (pH 8.5) for 15 h
# T1 sequence (P01857 whole entry N180A/D239E/L241M, looked up, other chains not shown): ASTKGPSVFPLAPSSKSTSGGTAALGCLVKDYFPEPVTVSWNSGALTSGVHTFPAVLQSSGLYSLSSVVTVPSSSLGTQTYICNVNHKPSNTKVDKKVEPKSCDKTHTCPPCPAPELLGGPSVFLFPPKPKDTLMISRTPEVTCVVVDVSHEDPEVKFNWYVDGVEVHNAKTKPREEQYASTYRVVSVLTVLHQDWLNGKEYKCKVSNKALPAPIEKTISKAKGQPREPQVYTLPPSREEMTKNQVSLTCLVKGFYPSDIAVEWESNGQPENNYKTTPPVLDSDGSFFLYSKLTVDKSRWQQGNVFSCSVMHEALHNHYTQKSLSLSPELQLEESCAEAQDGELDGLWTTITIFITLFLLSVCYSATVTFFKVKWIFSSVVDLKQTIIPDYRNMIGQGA
smiles,measurement,setting,value
CC(=O)N[C@@H](CC(=O)O)C(=O)N[C@H]1CNC(=O)CSC[C@@H](C(=O)N[C@H](C(N)=O)[C@@H](C)O)NC(=O)[C@H](Cc2c[nH]c3ccccc23)NC(=O)[C@H](C(C)C)NC(=O)[C@H](CC(C)C)NC(=O)[C@H](CCC(=O)Nc2ccc(OC(=O)c3ccc(C(=O)c4ccccc4)cc3)cc2)NC(=O)CNC(=O)[C@H](CC(C)C)NC(=O)[C@H](Cc2c[nH]cn2)NC(=O)[C@H](Cc2c[nH]c3ccccc23)NC(=O)[C@H](C)NC1=O [F10],yield of the labeled Fc,[1]; [8],about 5%
same,mass shift of Fc after reaction (MALDI-TOF MS),"[1]; 4 μM IgG Fc, 24 μM peptide, 37° C., PBS pH 7.4 2 h or borate pH 8.5 15 h",No obvious mass shift was observed
same,yield of the labeled Fc,[1]; [9],26%
CC(C)C[C@@H]1NC(=O)[C@H](Cc2c[nH]cn2)NC(=O)[C@H](Cc2c[nH]c3ccccc23)NC(=O)[C@H](C)NC(=O)[C@@H](NC(=O)[C@H](CC(=O)O)NC(=O)CCNC(=O)CNC(=S)Nc2ccc(-c3c4ccc(=O)cc-4oc4cc(O)ccc34)c(C(=O)O)c2)CNC(=O)CSC[C@@H](C(=O)N[C@H](C(N)=O)[C@@H](C)O)NC(=O)[C@H](Cc2c[nH]c3ccccc23)NC(=O)[C@H](C(C)C)NC(=O)[C@H](CC(C)C)NC(=O)[C@H](CCC(=O)Nc2ccc(NC(=O)CN=[N+]=[N-])cc2)NC(=O)CNC1=O [f-F5] (X1-G[βAla]D[Dap]AWHLGE(X4)LVWCT-NH2; linker 4-14 via X3),Kd,[2],2000 nM
CC(C)C[C@@H]1NC(=O)[C@H](Cc2c[nH]cn2)NC(=O)[C@H](Cc2c[nH]c3ccccc23)NC(=O)[C@H](C)NC(=O)[C@@H](NC(=O)[C@H](CC(=O)O)NC(=O)CCNC(=O)CNC(=S)Nc2ccc(-c3c4ccc(=O)cc-4oc4cc(O)ccc34)c(C(=O)O)c2)CNC(=O)CSC[C@@H](C(=O)N[C@H](C(N)=O)[C@@H](C)O)NC(=O)[C@H](Cc2c[nH]c3ccccc23)NC(=O)[C@H](C(C)C)NC(=O)[C@H](CC(C)C)NC(=O)[C@H](CCC(=O)Nc2ccc(O)cc2)NC(=O)CNC1=O [f-F4] (X1-G[βAla]D[Dap]AWHLGE(X2)LVWCT-NH2; linker 4-14 via X3),Kd,[2],1500 nM
CC(=O)N[C@@H](CC(=O)O)C(=O)N[C@H]1CNC(=O)CSC[C@@H](C(=O)N[C@H](C(N)=O)[C@@H](C)O)NC(=O)[C@H](Cc2c[nH]c3ccccc23)NC(=O)[C@H](C(C)C)NC(=O)[C@H](CC(C)C)NC(=O)[C@H](CCC(=O)Nc2ccc(OC(C)=O)cc2)NC(=O)CNC(=O)[C@H](CC(C)C)NC(=O)[C@H](Cc2c[nH]cn2)NC(=O)[C@H](Cc2c[nH]c3ccccc23)NC(=O)[C@H](C)NC1=O [F7],yield of the labeled Fc,[1]; [8],about 41%
same,yield of the labeled Fc,[1]; [9],90%
CC(=O)N[C@@H](CC(=O)O)C(=O)N[C@H]1CNC(=O)CSC[C@@H](C(=O)N[C@H](C(N)=O)[C@@H](C)O)NC(=O)[C@H](Cc2c[nH]c3ccccc23)NC(=O)[C@H](C(C)C)NC(=O)[C@H](CC(C)C)NC(=O)C(CCC(=O)Nc2cccc(OC(=O)CN=[N+]=[N-])c2)NC(=O)CNC(=O)[C@H](CC(C)C)NC(=O)[C@H](Cc2c[nH]cn2)NC(=O)[C@H](Cc2c[nH]c3ccccc23)NC(=O)[C@H](C)NC1=O (some centres unmarked) [F6],acetylation yield compared with F1,[1]; 3-aminophenol linker instead of 4-aminophenol,markedly decreased the acetylation yield
C#CCCC(=O)Oc1ccc(NC(=O)CC[C@@H]2NC(=O)CNC(=O)[C@H](CC(C)C)NC(=O)[C@H](Cc3c[nH]cn3)NC(=O)[C@H](Cc3c[nH]c4ccccc34)NC(=O)[C@H](C)NC(=O)[C@@H](NC(=O)[C@H](CC(=O)O)NC(C)=O)CNC(=O)CSC[C@@H](C(=O)N[C@H](C(N)=O)[C@@H](C)O)NC(=O)[C@H](Cc3c[nH]c4ccccc34)NC(=O)[C@H](C(C)C)NC(=O)[C@H](CC(C)C)NC2=O)cc1 [F8],yield of the labeled Fc,[1]; [8],about 17%
same,yield of the labeled Fc,[1]; [9],84%
CC(=O)N[C@@H](CC(=O)O)C(=O)N[C@H]1CNC(=O)CSC[C@@H](C(=O)N[C@H](C(N)=O)[C@@H](C)O)NC(=O)[C@H](Cc2c[nH]c3ccccc23)NC(=O)[C@H](C(C)C)NC(=O)[C@H](CC(C)C)NC(=O)C(CCC(=O)Nc2ccc(OC(=O)CCCC[C@@H]3SC[C@@H]4NC(=O)N[C@@H]43)cc2)NC(=O)CNC(=O)[C@H](CC(C)C)NC(=O)[C@H](Cc2c[nH]cn2)NC(=O)[C@H](Cc2c[nH]c3ccccc23)NC(=O)[C@H](C)NC1=O (some centres unmarked) [F9],yield of the labeled Fc,[1]; [8],about 18%
same,yield of the labeled Fc,[1]; [9],73%
CC(=O)N[C@@H](CC(=O)O)C(=O)N[C@H]1CNC(=O)CSC[C@@H](C(=O)N[C@H](C(N)=O)[C@@H](C)O)NC(=O)[C@H](Cc2c[nH]c3ccccc23)NC(=O)[C@H](C(C)C)NC(=O)[C@H](CC(C)C)NC(=O)[C@H](CCC(=O)Nc2ccc(OC(=O)CN=[N+]=[N-])cc2)NC(=O)CNC(=O)[C@H](CC(C)C)NC(=O)[C@H](Cc2c[nH]cn2)NC(=O)[C@H](Cc2c[nH]c3ccccc23)NC(=O)[C@H](C)NC1=O [F1],time to 50% completion of the acetylation reaction,"[1]; 4 μM IgG Fc, 24 μM F1, PBS buffer pH 7.4, 37° C.",less than 30 min
same,acetylation reaction conversion within 1 h,"[1]; IgG Fc 2 μM to 20 μM, F1:IgG Fc ratio 6:1, PBS pH 7.4, 37° C.",> 50%
same,reactivity with IgG Fc by species,"[1]; human, 4 μM protein, 24 μM F1, PBS pH 7.4, 37° C., 1 h",only reacted with human and rabbit IgG Fcs
same,stability of peptide,[3]; basic condition (pH 8.5),extremely unstable at basic condition
same,peptide ester lost by hydrolysis,"[3]; in 1 h at pH 7.4, PBS, 37° C., 24 μM, absence of IgGs",about 70%
same,reactivity with IgG Fc by species,[4],only reacted with human and rabbit IgG Fcs
same,reactivity with IgG Fc by species,[5],not the IgG Fc from mice
same,selectivity of acetylation in a complex protein mixture,[6],selectively acetylate IgG Fc in a protein mixture of HeLa cell lysate without an appreciable level of background reactions
same,chain selectivity of acetylation,[7]; 37° C. for 1 h,acetylated the heavy chain only
same,heavy chain modified,[7]; in 15 minutes,~50%
same,heavy chain modified,[7]; in 1 h,~80%
